Experimental findings from patent publication US5583142A, “Analgesic and nootropic drugs” (priority 1992, dated 1996) are described below.

This experiment is classed as in vivo, mouse. Conditions: for ANALGESIC ACTIVITY (degree of analgesia, latency on hot plate): max. dose not affecting mice behaviour. As to the method: The analgesic action was detected in mouse, rat, guinea pig and dog. The mouse was subjected to hot plate and writhing tests; the rat to tail-flick and paw-pressure tests; the guinea pig to paw-pressure test only; the dog to the test described by Vainio et al. [J. Vet. Pharmacol. Ther., 12, 225-231 (1989)] using an electric stimulation. Consequently, the claimed compounds were tested with pain being induced by stimuli of different nature: thermal (hot plate and tail flick), chemical (writhing by acetic acid), mechanical (paw pressure) and electrical (cutaneous stimulation).
Potency, efficacy and toxicity of SM21, PG9 and SM32 in comparison with
four principal reference analgesic drugs tested in mouse. As analgesic

Consider `CC(C(=O)OC1CC2CCC(C1)N2C)c1cccc(Cl)c1` (centres unmarked) [PG13], for which the “ANALGESIC ACTIVITY (degree of analgesia, latency on hot plate)” value (shortened to “ANALGESIC ACTIVITY”) is reported as “+++ (Latency under or equal to 35" +++-)”. On to `CC(Sc1ccc(Cl)cc1)C(=O)O[C@H]1C[C@H]2CC[C@@H](C1)N2C` (stereo partly drawn) [SS-20, 3α-Tropanyl 2-(p-chlorophenylthio)propionate], for which the “ANALGESIC ACTIVITY” value is given as “+++ (Latency under or equal to 35" +++-)”. In the case of `CC(Oc1ccc2ccccc2c1)C(=O)O[C@H]1C[C@H]2CC[C@@H](C1)N2C` (stereo partly drawn) [AC-19, 3α-Tropanyl 2-(β-naphthoxy)propionate], the “ANALGESIC ACTIVITY” value is “+++ (Latency under or equal to 35" +++-)”. Consider `CC(Sc1ccc(Cl)cc1)C(=O)OC1CC2CCC(C1)N2C` (single isomer, unassigned) [(R) SS20 (+)], for which the “ANALGESIC ACTIVITY” value is recorded as “+++ (Latency under or equal to 35" +++-)”. With `CC(Oc1ccc(Br)cc1)C(=O)O[C@H]1C[C@H]2CC[C@@H](C1)N2C` (some centres unmarked) [SM15], the “ANALGESIC ACTIVITY” value is recorded as “++ (Latency under or equal to 30" ++-)”.

In the case of `CCN1C2CCC1CC(OC(=O)C(C)Oc1ccc(Cl)cc1)C2` (centres unmarked) [GC9], the “ANALGESIC ACTIVITY” value is recorded as “++ (Latency under or equal to 30" ++-)”.

Take `CCC(Sc1ccc(Cl)cc1)C(=O)OC1CC2CCC(C1)N2C` (single isomer, unassigned) [(S) SM35 (-), 3α-Tropanyl 2-(p-chlorophenylthio)butyrate]: the “ANALGESIC ACTIVITY” value is listed as “++ (Latency under or equal to 30" ++-)”.

For `CC(Oc1ccc(C#N)cc1)C(=O)O[C@H]1C[C@H]2CC[C@@H](C1)N2C` (some centres unmarked) [SS26], the “ANALGESIC ACTIVITY” value was “++ (Latency under or equal to 30" ++-)”.

As for `Cc1ccc(SC(C)C(=O)OC2CC3CCC(C2)N3C)cc1` (centres unmarked) [SS21], the “ANALGESIC ACTIVITY” value is “+ (Latency under or equal to 25" +-)”. Regarding `CC(C(=O)OC1CC2CCC(C1)N2C)c1ccccc1Br` (centres unmarked) [PG23], the “ANALGESIC ACTIVITY” value was “++ (Latency under or equal to 30" ++-)”. As to `CC(Oc1ccc(F)cc1)C(=O)OC1CC2CCC(C1)N2C` (single isomer, unassigned) [(R) NR100 (+)], the “ANALGESIC ACTIVITY” value was “++++ (Latency above 35" ++++-)”. On the same count and under the same terms, then `CCC(C(=O)OC1CC2CCC(C1)N2C)N(C)c1ccc(Cl)cc1` (centres unmarked) [AC13], with “++++ (Latency above 35" ++++-)”; and `CC(Nc1ccc(Cl)cc1)C(=O)OC1CC2CCC(C1)N2C` (stereo not drawn) [AC5, 3α-Tropanyl 2-(p-chlorophenylamino)-propionate], with “+ (Latency under or equal to 25" +-)”. Turning to `CC(Sc1ccccc1)C(=O)OC1CC2CCC(C1)N2C` (centres unmarked) [SS12], the “ANALGESIC ACTIVITY” value was “++ (Latency under or equal to 30" ++-)”. Still for that read-out and setting: then `CC(Oc1ccc(F)cc1)C(=O)O[C@H]1C[C@H]2CC[C@@H](C1)N2C` (some centres unmarked) [NR100], with “++++ (Latency above 35" ++++-)”. For the compound `CN1CC[C@]23c4c5ccc(O)c4O[C@H]2[C@@H](O)C=C[C@H]3[C@H]1C5.Cl` [Morphine HCl, reference compound], the “dose required to obtain analgesia equivalent to that of the claimed compounds” value (mouse, in μmoles/kg) is “three times lower”. In the case of `CC(C(=O)OC1CC2CCC(C1)N2C)c1ccc(F)cc1` (centres unmarked) [PG21], the “ANALGESIC ACTIVITY” value is “+++ (Latency under or equal to 35" +++-)”. For the compound `CC(C(=O)O[C@H]1C[C@H]2CC[C@@H](C1)N2C)c1ccc(Cl)cc1` (stereo partly drawn) [PG-8, 3α-Tropanyl 2-(p-chlorophenyl)-propionate], the “ANALGESIC ACTIVITY” value is “+++ (Latency under or equal to 35" +++-)”. Still for that read-out and setting: then `CC(C)C(Sc1ccc(Cl)cc1)C(=O)OC1CC2CCC(C1)N2C` (centres unmarked) [AC11], with “+ (Latency under or equal to 25" +-)”; and `CCC(C(=O)OC1CC2CCC(C1)N2C)c1ccc(Br)cc1` (centres unmarked) [PG24], with “+++ (Latency under or equal to 35" +++-)”. The same measure, in the same setting: then `CCC(Oc1ccc2cc(Br)ccc2c1)C(=O)OC1CC2CCC(C1)N2C` (centres unmarked) [AC31], with “+ (Latency under or equal to 25" +-)”; and `CCC(Sc1ccc(Cl)cc1)C(=O)O[C@H]1C[C@H]2CC[C@@H](C1)N2C` (stereo partly drawn) [SM-35, 3α-Tropanyl 2-(p-chlorophenylthio)-butyrate], with “+++ (Latency under or equal to 35" +++-)”; and `CC(Sc1ccc(Cl)cc1)C(=O)OC1CC2CCC(C1)N2C` (single isomer, unassigned) [(S) SS20 (+)], with “++ (Latency under or equal to 30" ++-)”. Same read-out and setting: then `CC(Nc1ccccc1)C(=O)OC1CC2CCC(C1)N2C` (centres unmarked) [SS29], with “+++ (Latency under or equal to 35" +++-)”.

In the case of `CC(Oc1ccc(F)cc1)C(=O)OC1CC2CCC(C1)N2C` (single isomer, unassigned) [(S) NR100 (-)], the “ANALGESIC ACTIVITY” value is given as “+++ (Latency under or equal to 35" +++-)”. The same measure, in the same setting: then `CC(C)Cc1ccc(C(C)C(=O)OC2CC3CCC(C2)N3C)cc1` (centres unmarked) [PG16], with “+ (Latency under or equal to 25" +-)”. The same measure, in the same setting: then `CC(C(=O)O[C@H]1C[C@H]2CC[C@@H](C1)N2C)N(C)c1ccc(Cl)cc1` (stereo partly drawn) [AC6, 3α-Tropanyl 2-[N-methyl-N(p-chlorophenyl)amino]-propionate], with “++ (Latency under or equal to 30" ++-)”; and `CC(C(=O)OC1CC2CCC(C1)N2C)c1ccc([N+](=O)[O-])cc1` (centres unmarked) [PG4], with “+ (Latency under or equal to 25" +-)”; and `CCC(Sc1ccc(Cl)cc1)C(=O)OC1CC2CCC(C1)N2C` (single isomer, unassigned) [(R) SM35 (+), 3α-Tropanyl 2-(p-chlorophenylthio)butyrate], with “+++ (Latency under or equal to 35" +++-)”. For `CC(Sc1ccc(Br)cc1)C(=O)OC1CC2CCC(C1)N2C` (centres unmarked) [SM17], the “ANALGESIC ACTIVITY” value is “++++ (Latency above 35" ++++-)”. Take `CC(Oc1ccc(C(F)(F)F)cc1)C(=O)O[C@H]1C[C@H]2CC[C@@H](C1)N2C` (some centres unmarked) [SM19]: the “ANALGESIC ACTIVITY” value is given as “+ (Latency under or equal to 25" +-)”.

Take `CCC(Oc1ccc(Cl)cc1)C(=O)O[C@H]1C[C@H]2CC[C@@H](C1)N2CC` (stereo partly drawn) [GC-11, N-Ethyl-3α-nortropanyl 2-(p-chlopophenoxy)butyrate]: the “ANALGESIC ACTIVITY” value is reported as “++ (Latency under or equal to 30" ++-)”.

As to `CC(C(=O)OC1CC2CCC(C1)N2C)c1ccccc1Cl` (centres unmarked) [PG14], the “ANALGESIC ACTIVITY” value was “+++ (Latency under or equal to 35" +++-)”.

With `CC(Sc1ccc(F)cc1)C(=O)OC1CC2CCC(C1)N2C` (centres unmarked) [SM23], the “ANALGESIC ACTIVITY” value is reported as “++ (Latency under or equal to 30" ++-)”.

For the compound `CSc1ccc(OC(C)C(=O)O[C@H]2C[C@H]3CC[C@@H](C2)N3C)cc1` (some centres unmarked) [NR95], the “ANALGESIC ACTIVITY” value was “+ (Latency under or equal to 25" +-)”. In the case of `CC(Oc1ccc(Cl)cc1)C(=O)N[C@H]1C[C@H]2CC[C@@H](C1)N2C` (stereo partly drawn) [SS-16, N-(3α-tropanyl)-2-(p-chlorophenoxy)-propionamide], the “ANALGESIC ACTIVITY” value is given as “+ (Latency under or equal to 25" +-)”.

Consider `CC(Oc1cccc(Cl)c1)C(=O)OC1CC2CCC(C1)N2C` (centres unmarked) [SM12], for which the “ANALGESIC ACTIVITY” value is given as “++ (Latency under or equal to 30" ++-)”.

Regarding `COc1ccc(C(C)C(=O)OC2CC3CCC(C2)N3C)cc1` (centres unmarked) [PG18], the “ANALGESIC ACTIVITY” value is “+ (Latency under or equal to 25" +-)”. Turning to `CC(C(=O)OC1CC2CCC(C1)N2C)c1ccc(N)cc1` (centres unmarked) [PG5], the “ANALGESIC ACTIVITY” value was “+ (Latency under or equal to 25" +-)”.

`CC(Oc1ccc(Cl)c(Cl)c1)C(=O)OC1CC2CCC(C1)N2C` (centres unmarked) [SS10]: the “ANALGESIC ACTIVITY” value is on record as “+ (Latency under or equal to 25" +-)”. Take `CC(Oc1ccc(Cl)cc1)C(=O)OC1CC2CCC(C1)N2C` (single isomer, unassigned) [(S) ET142 (-)]: the “ANALGESIC ACTIVITY” value was “++ (Latency under or equal to 30" ++-)”.

Regarding `CCC(Oc1ccc(F)cc1)C(=O)OC1CC2CCC(C1)N2C` (centres unmarked) [AC15], the “ANALGESIC ACTIVITY” value was “++++ (Latency above 35" ++++-)”. For the compound `CC(Oc1ccc(Cl)cc1)C(=O)OC1CC2CCC(C1)N2C` (single isomer, unassigned) [(R) ET142 (+)], the “ANALGESIC ACTIVITY” value is given as “+++ (Latency under or equal to 35" +++-)”. On the same count and under the same terms, then `CN1[C@@H]2CC[C@H]1C[C@@H](OC(=O)C(C)(C)Oc1ccc(Cl)cc1)C2` [SM-25, 3α-Tropanyl 2-(p-chlorophenoxy)-isobutyrate], with “++ (Latency under or equal to 30" ++-)”.
